From paper PMC8153121, “N-Alkylation of Anthracycline Antibiotics by Natural Sesquiterpene Lactones as a Way to Obtain Antitumor Agents with Reduced Side Effects” (Biomedicines, 2021)
Read-outs that look alike come from different tables or passages of the source.

What was measured:
[1] = system: A549 (lung carcinoma); assay: MTT cell viability test, A549; type: cell-based, Human; details: read-out: IC50, A549
Description: (§1) Human cell cultures of tumor origin (A549 (lung carcinoma), HCT116 (colon adenocarcinoma), MCF7 (breast cancer), RD (embryonic rhabdomyosarcoma)), and the line of non-transformed cells HEK293 (embryonic kidney) provided by the Laboratory of Tumor Cell Genetics at the N.N. Blokhin Russian Cancer Research Institute, as well as by the Institute of Cytology of the Russian Academy of Sciences, were grown in DMEM (Gibco, Scotland, UK) and MEM (Gibco, Scotland, UK) containing fetal calf serum (10% by volume) (ThermoFisher Scientific, Paisley, UK), L-glutamine (2 mM) (Gibco, Scotland, UK), and penicillin-streptomycin (1% by volume) (PanEco, Moscow, Russia).
(§2) Cellular viability was determined by the MTT test. […] After 24 h of incubation, various concentrations of the test compounds dissolved in DMSO (≤1%) were added to the cell cultures, the solvent was added to the control wells in an equal volume, and then the cells were cultured under the same conditions for 72 h. After the incubation time, MTT (3-(4,5-dimethylthiazol-2-yl)-2,5-diphenyltetrazolium bromide, 5 mg/mL) was added to each well, and the plates were further incubated for 2 h (until a characteristic color appeared). Then, the formazan granules were dissolved in DMSO.
(§3) Using a plate analyzer (Cytation3, BioTech Instruments Inc., USA), the optical density was determined at λ = 530 nm.

[2] = system: HCT116 (colon adenocarcinoma); assay: MTT cell viability test, HCT116; type: cell-based, Human; details: read-out: IC50, HCT116
Description: as §1, §2, §3

[3] = system: MCF7 (breast cancer); assay: MTT cell viability test, MCF7; type: cell-based, Human; details: read-out: IC50, MCF7
Description: as §1, §2, §3

[4] = system: RD (embryonic rhabdomyosarcoma); assay: MTT cell viability test, RD; type: cell-based, Human; details: 72 h, read-out: IC50, RD
Description: as §1, §2, §3

[5] = system: HEK293 (embryonic kidney); assay: MTT cell viability test, non-transformed HEK293; type: cell-based, Human; details: read-out: IC50, HEK293
Description: as §1, §2, §3

[6] = biological target: T1, complex II of the electron transport chain (Rattus norvegicus, UniProt P21913+Q641Z9+Q6PCT8+Q920L2); assay: Respiratory chain complex II, OCR of isolated rat heart mitochondria (Seahorse); type: biochemical; details: isolated rat heart mitochondria 10 μg/well, compounds at 30 μM
T1 construct: Rat heart mitochondria were isolated by differential centrifugation; from tissue; host or cells: rat heart mitochondria
T1 sequence (Q920L2 35-656): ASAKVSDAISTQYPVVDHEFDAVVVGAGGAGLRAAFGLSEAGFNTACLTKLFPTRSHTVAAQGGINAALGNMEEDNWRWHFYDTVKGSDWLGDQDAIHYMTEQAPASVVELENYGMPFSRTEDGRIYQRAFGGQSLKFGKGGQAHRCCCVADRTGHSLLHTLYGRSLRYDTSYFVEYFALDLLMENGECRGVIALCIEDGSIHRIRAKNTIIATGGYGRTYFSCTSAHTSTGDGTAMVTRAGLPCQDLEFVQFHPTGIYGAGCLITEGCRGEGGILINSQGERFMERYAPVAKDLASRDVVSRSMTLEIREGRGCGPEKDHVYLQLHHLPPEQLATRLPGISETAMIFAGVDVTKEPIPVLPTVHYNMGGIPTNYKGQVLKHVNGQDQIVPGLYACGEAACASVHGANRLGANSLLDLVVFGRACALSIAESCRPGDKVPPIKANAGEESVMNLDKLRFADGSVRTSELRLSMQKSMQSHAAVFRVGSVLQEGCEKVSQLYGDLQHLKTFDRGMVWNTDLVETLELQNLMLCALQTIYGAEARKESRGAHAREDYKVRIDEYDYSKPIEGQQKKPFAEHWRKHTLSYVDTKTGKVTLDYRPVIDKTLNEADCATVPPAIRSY
T1 sequence (P21913 31-282): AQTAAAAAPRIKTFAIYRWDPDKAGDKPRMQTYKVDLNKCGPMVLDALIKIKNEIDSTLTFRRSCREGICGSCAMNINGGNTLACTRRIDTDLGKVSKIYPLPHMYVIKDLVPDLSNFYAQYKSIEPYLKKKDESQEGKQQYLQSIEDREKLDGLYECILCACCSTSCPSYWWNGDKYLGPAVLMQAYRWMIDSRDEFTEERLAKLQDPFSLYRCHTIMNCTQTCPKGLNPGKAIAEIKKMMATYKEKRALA
T1 sequence (Q641Z9 30-169 limits assumed): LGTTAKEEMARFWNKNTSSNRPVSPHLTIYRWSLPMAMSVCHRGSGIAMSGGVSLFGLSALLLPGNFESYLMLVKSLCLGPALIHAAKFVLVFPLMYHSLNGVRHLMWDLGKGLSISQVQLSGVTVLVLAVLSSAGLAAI
T1 sequence (Q6PCT8 57-159): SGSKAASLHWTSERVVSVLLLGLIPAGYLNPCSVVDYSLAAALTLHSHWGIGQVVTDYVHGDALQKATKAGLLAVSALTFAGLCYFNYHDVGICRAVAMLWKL
Description: (§4) Rat heart mitochondria were isolated by differential centrifugation using ice-cold buffer containing KCl (120 mM) and HEPES (20 mM), pH = 7.4, and a trypsin inhibitor. The mitochondrial yield ranged from 5 to 10 mg/mL of protein in the heart sediment. Mitochondria were stored in plastic containers at 4 °C.
(§5) The effect of the compounds on the functioning of the electron transport chain complexes was carried out using an Agilent Seahorse XF96e Analyzer (Seahorse Bioscience, Billerica, MA, USA) according to their ability to change the rate of oxygen uptake by isolated rat heart mitochondria (10 μg/well). The following modulators were used: activators of complex I of the electron transport chain, NADH dehydrogenase,—glutamate/malate; rotenone (2 μM) (Sigma Aldrich, Saint Louis, USA)—a tissue respiration blocker that stops the transfer of electrons from the reduced form of NADH to cytochrome b, was used as complex I inhibitor; potassium succinate ([…]) (Dia-M, Moscow, Russia), which is a substrate of complex II of the electron transport chain, made it possible to assess mitochondrial respiration mediated by succinate dehydrogenase; complex III (ubiquinol-cytochrome c-oxidoreductase) inhibitor—a blocker of cellular respiration antimycin A (Sigma Aldrich, Saint Louis, USA), as well as ascorbate/TMPD (0.5 μM) (Sigma Aldrich, Saint Louis, USA), allowed us to evaluate the cytochrome-c-oxidase mediated respiration of organelles.

[7] = biological target: T2, cytochrome-c-oxidase complex of the mitochondrial respiratory chain (IV) (Rattus norvegicus, UniProt P00406+P05503+P05505); assay: Respiratory chain complex IV, OCR of isolated rat heart mitochondria (Seahorse); type: biochemical; details: isolated rat heart mitochondria 10 μg/well, compounds at 30 μM
T2 construct: Rat heart mitochondria were isolated by differential centrifugation; from tissue; host or cells: rat heart mitochondria
T2 sequence (P00406 whole entry, other chains not shown): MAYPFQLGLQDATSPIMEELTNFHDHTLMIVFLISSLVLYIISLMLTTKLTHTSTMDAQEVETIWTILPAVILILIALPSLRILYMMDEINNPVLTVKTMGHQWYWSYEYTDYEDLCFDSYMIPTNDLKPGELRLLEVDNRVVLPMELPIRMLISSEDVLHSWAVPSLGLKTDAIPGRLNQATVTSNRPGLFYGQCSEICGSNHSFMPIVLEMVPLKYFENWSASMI
T2 sequence (P05505 whole entry, other chains not shown): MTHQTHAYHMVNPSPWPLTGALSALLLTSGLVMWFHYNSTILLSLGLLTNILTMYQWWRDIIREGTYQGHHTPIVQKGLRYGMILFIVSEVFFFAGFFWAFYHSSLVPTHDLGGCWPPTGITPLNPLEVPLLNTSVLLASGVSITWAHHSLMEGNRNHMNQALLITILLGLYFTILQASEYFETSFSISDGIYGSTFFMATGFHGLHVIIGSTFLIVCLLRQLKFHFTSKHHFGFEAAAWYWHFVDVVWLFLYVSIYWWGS
Description: as §4, §5

[8] = system: rat heart mitochondria; assay: Mitochondrial swelling; type: biochemical; details: rat heart mitochondria 0.5 mg/mL, compounds at 100 μM, Ca2+ 25 μM
Description: as §4
Mitochondrial swelling was recorded by the light transmission of the rat heart mitochondrial suspension at λ = 540 nm using a Victor 3 plate analyzer (Perkin Elmer, Germany). The swelling rate was estimated as △A540/min and was calculated as the tangent of the angle of the steepest dependence curve part △A540 versus time.

[9] = Homo sapiens, A549, 72 h, MTT, 72 h
[10] = Homo sapiens, HCT-116, 72 h, MTT, 72 h
[11] = Homo sapiens, MCF7, 72 h, MTT, 72 h
[12] = Homo sapiens, HEK293, 72 h, MTT, 72 h, non-transformed cells
[13] = MTT, 72 h, non-transformed cells

Compound	IC50 [1, 9] [µM]	IC50 [2, 10] [µM]	IC50 [3, 11] [µM]	IC50 ([1]; MTT, 72 h) [µM]	IC50 ([2]; MTT, 72 h) [µM]	IC50 ([3]; MTT, 72 h) [µM]	Work of Respiratory Chain Complexes, % Decrease in OCR of Control, IV [7]	IC50 ([4]; Homo sapiens, MTT) [µM]	IC50 [5, 12] [µM]	IC50 ([4]; MTT) [µM]	IC50 [5, 13] [µM]	Work of Respiratory Chain Complexes, % Decrease in OCR of Control, II [6]	Mitochondrial Swelling, % of Ca2+-Induced Swelling [8]	other results
C=C1C(=O)OC2CC3(C)CCCC4(CO4)C3CC12 (stereo not shown) [Compound 4, epoxy-isoalantholactone, reference compound]	83.51 ± 0.26	21.4 ± 0.32	31.87 ± 0.14	–	–	–	–	18.6 ± 0.21	106 ± 4.13	–	–	–	–	–
C=C1C(=O)OC2CC3(C)CCCC4(C)OC34CC12 (stereo not shown) [Compound 6, epoxyalloalantholactone, reference compound]	61.7 ± 2.4	10.8 ± 0.18	38.6 ± 0.86	50.3 ± 1.11	9.75 ± 0.57	24 ± 0.8	–	16.8 ± 0.28	29.77 ± 0.05	8.77 ± 0.01	18.5 ± 0.2	–	–	–
C=C1C(=O)O[C@@H]2C[C@@]3(C)CCCC(C)=C3C[C@H]12 [Compound 3, alloalantholactone, reference compound]	23.1 ± 1.18	34.5 ± 3.51	17.9 ± 0.68	–	–	–	–	8.82 ± 0.14	35.9 ± 0.48	–	–	–	–	–
C=C1C(=O)O[C@@H]2C[C@@]3(C)CCC=C(C)C3=C[C@H]12 [Compound 8, alanthodiene, reference compound]	–	–	–	–	–	–	–	–	–	–	–	–	–	IC50 ([1]; Homo sapiens, A549, 72 h): 59.9 ± 2.26 µM; IC50 ([2]; Homo sapiens, HCT-116, 72 h): 4.99 ± 0.06 µM; IC50 ([3]; Homo sapiens, MCF7, 72 h): 4.31 ± 0.02 µM; IC50 ([4]; Homo sapiens): 4.94 ± 0.09 µM; IC50 ([5]; Homo sapiens, HEK293, 72 h): 9.07 ± 0.25 µM
C=C1C(=O)O[C@@H]2C[C@@]3(C)CCC[C@H](C)C3=C[C@H]12 [Compound 2, alantolactone, reference compound]	36.7 ± 1.43	10.57 ± 0.04	13.2 ± 0.93	–	–	–	–	5.48 ± 0.2	36.47 ± 0.07	–	–	–	–	–
C=C1CCCC2(C)CC3OC(=O)C(CNC4CC(OC5CC(O)(C(=O)CO)Cc6c(O)c7c(c(O)c65)C(=O)c5c(OC)cccc5C7=O)OC(C)C4O)C3CC12 (stereo not shown) [Compound 1a]	–	–	–	2.21 ± 0.06	2.81 ± 0.05	11.1 ± 0.17	24.52 ± 7.61%	–	–	2.41 ± 0.03	19.8 ± 0.42	27.61 ± 5.71%	— (“—” indicates activity absence for compounds (≤10%) in a particular test)	–
COc1cccc2c1C(=O)c1c(O)c3c(c(O)c1C2=O)C[C@@](O)(C(=O)CO)C[C@@H]3O[C@H]1C[C@H](NC[C@H]2C(=O)O[C@@H]3C[C@@]4(C)CCC=C(C)C4=C[C@@H]32)[C@H](O)[C@H](C)O1 [Compound 8a, (8S,10S)-10-(((2R,4S,5S,6S)-4-((((3S,3aR,8aR,9aR)-5,8a-Dimethyl-2-oxo-2,3,3a,7,8,8a,9,9a-octahydronaphtho[2,3-b]furan-3-yl)methyl)amino)-5-hydroxy-6-methyltetrahydro-2H-pyran-2-yl)oxy)-6,8,11-trihydroxy-8-(2-hydroxyacetyl)-1-methoxy-7,8,9,10-tetrahydrotetracene-5,12-dione]	–	–	–	–	–	–	25.95 ± 4.43%	–	–	–	–	27.58 ± 4.30%	47.84 ± 4.99%	IC50 ([1]; Homo sapiens, A549, 72 h): 1.87 ± 0.07 µM; IC50 ([2]; Homo sapiens, HCT-116, 72 h): 0.43 ± 0.02 µM; IC50 ([3]; Homo sapiens, MCF7, 72 h): 2.34 ± 0.01 µM; IC50 ([4]; Homo sapiens): 1.03 ± 0.02 µM; IC50 ([5]; Homo sapiens, HEK293, 72 h): 16.4 ± 1.07 µM; melting point: 166 to 170 °C
C=C1C(=O)O[C@@H]2C[C@@]3(C)CCC[C@H](C)[C@@]34O[C@H]4[C@H]12 [Compound 5, epoxyalantholactolactone, reference compound]	21.5 ± 0.75	5.12 ± 0.05	11.4 ± 0.32	–	–	–	–	4.81 ± 0.12	38.1 ± 1.08	–	–	–	–	–
C=C1CCC[C@]2(C)C[C@H]3OC(=O)C(=C)[C@H]3CC12 (stereo partly shown) [Compound 1, isoalantholactone, reference compound]	32 ± 3.24	11.3 ± 0.27	17.5 ± 0.6	–	–	–	–	10.4 ± 0.79	74.03 ± 0.51	–	–	–	–	–
C=C1CCCC2(C)CC3OC(=O)C(CNC4CC(OC5CC(O)(C(C)=O)Cc6c(O)c7c(c(O)c65)C(=O)c5c(OC)cccc5C7=O)OC(C)C4O)C3CC12 (stereo not shown) [Compound 1b]	–	–	–	0.93 ± 0.06	0.28	3.95 ± 0.03	— (“—” indicates activity absence for compounds (≤10%) in a particular test)	–	–	0.96 ± 0.02	3.43 ± 0.04	— (“—” indicates activity absence for compounds (≤10%) in a particular test)	— (“—” indicates activity absence for compounds (≤10%) in a particular test)	–
COc1cccc2c1C(=O)c1c(O)c3c(c(O)c1C2=O)C[C@@](O)(C(=O)CO)C[C@@H]3O[C@H]1C[C@H](NC[C@H]2C(=O)O[C@@H]3C[C@@]4(C)CCC[C@H](C)C4=C[C@@H]32)[C@H](O)[C@H](C)O1 [Compound 2a]	–	–	–	3.29 ± 0.11	4.55 ± 0.03	26.8 ± 0.65	20.45 ± 5.85%	–	–	2.67 ± 0.11	29.83 ± 0.18	39.11 ± 4.05%	31.51 ± 8.35%	–
COc1cccc2c1C(=O)c1c(O)c3c(c(O)c1C2=O)C[C@@](O)(C(C)=O)C[C@@H]3O[C@H]1C[C@H](NC[C@H]2C(=O)O[C@@H]3C[C@@]4(C)CCC=C(C)C4=C[C@@H]32)[C@H](O)[C@H](C)O1	–	–	–	–	–	–	–	–	–	–	–	–	–	melting point: 152 to 158 °C

Further lines, with some results ahead:

IC50 [1, 9] [µM]	IC50 [2, 10] [µM]	IC50 [3, 11] [µM]	IC50 ([1]; MTT, 72 h) [µM]	IC50 ([2]; MTT, 72 h) [µM]	IC50 ([3]; MTT, 72 h) [µM]	Work of Respiratory Chain Complexes, % Decrease in OCR of Control, IV [7]	Compound	IC50 ([4]; Homo sapiens, MTT) [µM]	IC50 [5, 12] [µM]	IC50 ([4]; MTT) [µM]	IC50 [5, 13] [µM]	Work of Respiratory Chain Complexes, % Decrease in OCR of Control, II [6]	Mitochondrial Swelling, % of Ca2+-Induced Swelling [8]	other results
–	–	–	0.56 ± 0.01	0.26 ± 0.01	1.47 ± 0.04	41.69 ± 2.13%	COc1cccc2c1C(=O)c1c(O)c3c(c(O)c1C2=O)CC(O)(C(C)=O)CC3OC1CC(NCC2C(=O)OC3CC4(C)CCCC5(C)OC45CC32)C(O)C(C)O1 (mixture of isomers) [Compound 6b]	–	–	0.41 ± 0.02	3.68 ± 0.16	26.74 ± 4.56%	— (“—” indicates activity absence for compounds (≤10%) in a particular test)	–
–	–	–	1.19 ± 0.02	1.3 ± 0.02	1.84 ± 0.06	21.56 ± 3.66%	COc1cccc2c1C(=O)c1c(O)c3c(c(O)c1C2=O)CC(O)(C(C)=O)CC3OC1CC(NCC2C(=O)OC3CC4(C)CCCC(C)C45OC5C32)C(O)C(C)O1 (stereo not shown) [Compound 5b]	–	–	0.8	18.19 ± 0.18	— (“—” indicates activity absence for compounds (≤10%) in a particular test)	— (“—” indicates activity absence for compounds (≤10%) in a particular test)	–
–	–	–	0.88 ± 0.11	0.25 ± 0.04	2.94 ± 0.02	40.50 ± 4.05%	COc1cccc2c1C(=O)c1c(O)c3c(c(O)c1C2=O)CC(O)(C(=O)CO)CC3OC1CC(NCC2C(=O)OC3CC4(C)CCCC5(C)OC45CC32)C(O)C(C)O1 (mixture of isomers) [Compound 6a]	–	–	1.18 ± 0.01	0.98 ± 0.23	–	54.22 ± 5.49%	–
